Source: patent US8148388B2, “2,4 (4,6) pyrimidine derivatives” (Janssen Pharmaceutica, N.V., priority 2004, dated 2012)
Where two headings read alike, the source gives them in different places.

Assays:
Abl (h) = Abl (h) (Homo sapiens, UniProt P00519); test: Abl human kinase assay (glass-fiber filter); type: biochemical; settings: test concentration of 10^−6M; read-out: C1 score (inhibition of Abl human)
[1] = amide bond, DMF, 25.0 °C
Fms (h) = Fms (h) (Homo sapiens, UniProt P07333); test: Fms human kinase assay (glass-fiber filter); type: biochemical; settings: test concentration of 10^−6M; read-out: C7 score (inhibition of Fms human)
Chain of Fms (h) (P07333 20-972): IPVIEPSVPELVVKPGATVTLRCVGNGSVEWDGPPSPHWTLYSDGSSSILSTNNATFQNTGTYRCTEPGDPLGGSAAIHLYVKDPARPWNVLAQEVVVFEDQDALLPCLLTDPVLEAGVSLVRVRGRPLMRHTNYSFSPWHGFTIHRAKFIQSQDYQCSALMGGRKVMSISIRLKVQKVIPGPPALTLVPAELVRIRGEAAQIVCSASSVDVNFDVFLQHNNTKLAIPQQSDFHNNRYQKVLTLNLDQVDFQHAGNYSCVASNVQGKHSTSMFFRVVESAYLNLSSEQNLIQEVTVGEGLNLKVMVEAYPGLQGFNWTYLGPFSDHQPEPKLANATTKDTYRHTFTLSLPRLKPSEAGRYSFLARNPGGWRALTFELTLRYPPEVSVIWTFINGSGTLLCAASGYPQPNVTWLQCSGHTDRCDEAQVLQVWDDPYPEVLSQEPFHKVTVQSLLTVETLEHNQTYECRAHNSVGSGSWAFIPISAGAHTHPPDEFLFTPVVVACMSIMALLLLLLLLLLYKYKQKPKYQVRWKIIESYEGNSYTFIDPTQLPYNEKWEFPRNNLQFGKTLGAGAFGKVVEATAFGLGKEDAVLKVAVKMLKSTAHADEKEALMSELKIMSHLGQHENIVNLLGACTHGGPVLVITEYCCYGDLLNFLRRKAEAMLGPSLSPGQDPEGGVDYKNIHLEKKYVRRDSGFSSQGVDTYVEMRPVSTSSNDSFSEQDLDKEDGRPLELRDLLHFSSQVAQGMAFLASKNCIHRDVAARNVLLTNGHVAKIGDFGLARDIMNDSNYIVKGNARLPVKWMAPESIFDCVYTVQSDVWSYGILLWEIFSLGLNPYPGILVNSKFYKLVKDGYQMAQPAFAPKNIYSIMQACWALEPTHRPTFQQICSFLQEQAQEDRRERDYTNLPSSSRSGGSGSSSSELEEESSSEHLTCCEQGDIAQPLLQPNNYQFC
In short: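 Radiometric filter-binding assay: Fms (5-10 mU) with 250 μM peptide substrate and [γ-33P]ATP in 8 mM MOPS pH 7.0, 10 mM Mg acetate, 40 min at room temperature. Reaction stopped with phosphoric acid; substrate-bound 33P counted on P30 filtermat.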

Yes (h) = Yes (h) (Homo sapiens, UniProt P07947); test: Yes human kinase assay (glass-fiber filter); type: biochemical; settings: test concentration of 10^−6M; read-out: C11 score (inhibition of Yes human)
Chain of Yes (h) (P07947 whole entry): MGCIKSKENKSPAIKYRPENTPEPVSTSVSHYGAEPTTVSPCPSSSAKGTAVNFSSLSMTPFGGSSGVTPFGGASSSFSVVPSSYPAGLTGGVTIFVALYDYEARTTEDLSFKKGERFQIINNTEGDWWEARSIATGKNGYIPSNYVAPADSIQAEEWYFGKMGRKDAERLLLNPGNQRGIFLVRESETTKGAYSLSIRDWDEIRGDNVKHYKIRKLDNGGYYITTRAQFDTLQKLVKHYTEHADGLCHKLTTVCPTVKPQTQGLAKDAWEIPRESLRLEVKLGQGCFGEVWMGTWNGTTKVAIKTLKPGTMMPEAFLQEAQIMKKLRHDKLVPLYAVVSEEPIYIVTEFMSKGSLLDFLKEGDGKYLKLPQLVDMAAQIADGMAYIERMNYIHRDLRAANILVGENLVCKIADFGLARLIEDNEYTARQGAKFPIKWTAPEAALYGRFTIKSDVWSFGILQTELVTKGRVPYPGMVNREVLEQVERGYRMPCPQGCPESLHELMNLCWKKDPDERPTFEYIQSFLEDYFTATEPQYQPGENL
In short: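 Yes (h) (5-10 mU) with 0.1 mg/ml poly(Glu, Tyr) 4:1 in 8 mM MOPS pH 7.0, 0.2 mM EDTA, 10 mM MgAcetate and [γ-^33P-ATP], 40 minutes at room temperature. Stopped with phosphoric acid; substrate-bound ^33P counted on glass-fiber filter by scintillation.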

Lyn (h) = Lyn (h) (Homo sapiens, UniProt P07948); test: Lyn human kinase assay (glass-fiber filter); type: biochemical; settings: test concentration of 10^−6M; read-out: C10 score (inhibition of Lyn human)
Chain of Lyn (h) (P07948 whole entry): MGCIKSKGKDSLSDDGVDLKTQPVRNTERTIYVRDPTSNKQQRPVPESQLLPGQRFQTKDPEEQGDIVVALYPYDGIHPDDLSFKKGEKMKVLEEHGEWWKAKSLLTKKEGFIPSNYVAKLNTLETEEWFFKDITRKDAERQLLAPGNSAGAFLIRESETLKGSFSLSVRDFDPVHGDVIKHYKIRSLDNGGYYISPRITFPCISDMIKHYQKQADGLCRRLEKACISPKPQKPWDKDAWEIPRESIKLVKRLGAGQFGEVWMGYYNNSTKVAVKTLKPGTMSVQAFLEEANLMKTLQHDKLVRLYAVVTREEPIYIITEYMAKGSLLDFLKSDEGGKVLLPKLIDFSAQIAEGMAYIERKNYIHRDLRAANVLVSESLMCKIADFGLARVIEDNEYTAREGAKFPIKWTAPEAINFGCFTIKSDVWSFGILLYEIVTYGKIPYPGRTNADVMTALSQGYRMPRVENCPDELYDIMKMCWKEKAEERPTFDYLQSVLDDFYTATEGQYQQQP
In short: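 Human Lyn (5-10 mU) phosphorylating poly(Glu,Tyr) 4:1 at 0.1 mg/ml with [γ-33P]ATP (concentration as required) in 50 mM Tris pH 7.5, 10 mM Mg acetate, 40 min at room temperature. Stopped with phosphoric acid; substrate-bound radioactivity counted on glass-fibre filter.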

CSK (h) = CSK (h) (Homo sapiens, UniProt P41240); test: CSK human kinase assay (glass-fiber filter); type: biochemical; settings: test concentration of 10^−6M; read-out: C2 score (inhibition of CSK human)
Chain of CSK (h) (P41240 whole entry): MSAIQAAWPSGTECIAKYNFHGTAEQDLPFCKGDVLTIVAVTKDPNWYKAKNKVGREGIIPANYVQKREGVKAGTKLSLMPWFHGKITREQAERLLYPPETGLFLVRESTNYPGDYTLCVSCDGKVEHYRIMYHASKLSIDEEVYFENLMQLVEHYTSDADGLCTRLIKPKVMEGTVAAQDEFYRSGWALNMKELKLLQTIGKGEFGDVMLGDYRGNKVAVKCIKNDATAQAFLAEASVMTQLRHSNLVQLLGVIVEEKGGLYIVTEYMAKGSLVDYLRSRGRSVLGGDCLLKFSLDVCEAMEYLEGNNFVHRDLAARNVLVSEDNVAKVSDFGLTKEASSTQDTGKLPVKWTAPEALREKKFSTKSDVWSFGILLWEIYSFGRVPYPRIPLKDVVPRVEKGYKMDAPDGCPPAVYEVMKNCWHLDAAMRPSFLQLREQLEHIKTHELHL
Protocol: In the glass-fiber filter technology the activity of the kinase of interest is measured using an appropriate substrate that is incubated with the aforementioned kinase protein in the presence of (^33P) radiolabeled ATP. (^33P) Phosphorylation of the substrate is subsequently measured as radioactivity bound on a glass fiber-filter.
All kinases are pre-diluted to a 10× working concentration prior to addition into the assay. The composition of the dilution buffer for each kinase is detailed below.
In a final reaction volume of 25 μl, CSK (h) (5-10 mU) is incubated with 50 mM Tris pH 7.5, 0.1 mM EGTA, 0.1 mM Na3VO4, 0.1% β-mercaptoethanol, 0.1 mg/ml poly(Glu, Tyr) 4:1, 10 mM MnCl2, 10 mM MgAcetate and [γ-^33P-ATP] (specific activity approx. 500 cpm/pmol, concentration as required). The reaction is initiated by the addition of the MgATP mix. After incubation for 40 minutes at room temperature, the reaction is stopped by the addition of 5 μl of a 3% phosphoric acid solution. 10 μl of the reaction is then spotted onto a Filtermat A and washed three times for 5 minutes in 75 mM phosphoric acid and once in methanol prior to drying and scintillation counting.

EGFR (h) = EGFR (h) (Homo sapiens, UniProt P00533); test: EGFR human kinase assay (glass-fiber filter); type: biochemical; settings: test concentration of 10^−6M; read-out: C4 score (inhibition of EGFR human)
In short: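 Human EGFR (5-10 mU) phosphorylated 0.1 mg/ml poly(Glu, Tyr) 4:1 in 8 mM MOPS pH 7.0, 0.2 mM EDTA, 10 mM MnCl2, 10 mM MgAcetate with [γ-33P]ATP at unspecified concentration. Incubation lasted 40 minutes at room temperature, was stopped with phosphoric acid, and filter-bound 33P was counted by scintillation.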

cSRC (h) = cSRC (h) (Homo sapiens, UniProt P12931); test: cSRC human kinase assay (glass-fiber filter); type: biochemical; settings: test concentration of 10^−6M; read-out: C3 score (inhibition of cSRC human)
Chain of cSRC (h) (P12931 whole entry): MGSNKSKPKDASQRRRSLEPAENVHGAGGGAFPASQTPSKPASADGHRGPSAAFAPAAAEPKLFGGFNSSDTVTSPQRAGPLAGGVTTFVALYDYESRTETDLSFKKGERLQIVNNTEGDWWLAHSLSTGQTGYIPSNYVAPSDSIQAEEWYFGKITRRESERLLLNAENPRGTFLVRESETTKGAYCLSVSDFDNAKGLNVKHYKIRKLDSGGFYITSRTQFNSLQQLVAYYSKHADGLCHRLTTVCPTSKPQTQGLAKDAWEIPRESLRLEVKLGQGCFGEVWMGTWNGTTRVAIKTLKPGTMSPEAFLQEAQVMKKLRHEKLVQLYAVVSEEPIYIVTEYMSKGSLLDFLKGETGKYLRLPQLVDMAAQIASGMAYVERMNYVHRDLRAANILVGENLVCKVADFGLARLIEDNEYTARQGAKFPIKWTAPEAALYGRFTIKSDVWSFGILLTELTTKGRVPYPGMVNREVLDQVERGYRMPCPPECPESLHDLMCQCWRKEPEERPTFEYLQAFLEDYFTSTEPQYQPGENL
In short: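 Radiometric assay: kinase and substrate are incubated with [33P]ATP, with the reaction started by MgATP mix. The reaction is spotted on P30 filtermat, washed in 75 mM phosphoric acid and methanol, and the bound 33P is measured by scintillation counting.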

Lck (h) = Lck (h) (Homo sapiens, UniProt P06239); test: Lck human kinase assay (glass-fiber filter); type: biochemical; settings: test concentration of 10^−6M; read-out: C9 score (inhibition of Lck human)
Chain of Lck (h) (P06239 whole entry): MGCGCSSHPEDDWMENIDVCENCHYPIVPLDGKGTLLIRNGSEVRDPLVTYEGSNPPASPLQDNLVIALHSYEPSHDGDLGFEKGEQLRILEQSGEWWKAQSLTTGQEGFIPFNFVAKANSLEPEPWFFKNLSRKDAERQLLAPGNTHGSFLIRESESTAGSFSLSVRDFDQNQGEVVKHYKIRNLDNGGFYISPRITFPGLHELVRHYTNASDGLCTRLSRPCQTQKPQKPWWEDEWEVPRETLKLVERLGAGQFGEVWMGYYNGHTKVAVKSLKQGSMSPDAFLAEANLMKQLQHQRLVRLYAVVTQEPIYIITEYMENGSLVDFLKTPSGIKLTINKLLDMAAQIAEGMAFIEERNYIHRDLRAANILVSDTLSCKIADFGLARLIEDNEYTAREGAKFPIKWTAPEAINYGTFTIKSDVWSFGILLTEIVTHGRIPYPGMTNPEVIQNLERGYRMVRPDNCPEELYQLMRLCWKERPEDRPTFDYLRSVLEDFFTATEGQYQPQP
In short: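 Kinase activity measured as transfer of (^33P) from radiolabeled MgATP to substrate, captured on P30 glass-fiber filtermat, washed in 75 mM phosphoric acid and methanol, then scintillation counted.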

Fes (h) = Fes (h) (Homo sapiens, UniProt P07332); test: Fes human kinase assay (glass-fiber filter); type: biochemical; settings: test concentration of 10^−6M; read-out: C4 score (inhibition of Fes human)
In short: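 Human Fes (5–10 mU) was incubated with 0.1 mg/ml poly(Glu,Tyr) 4:1 in 8 mM MOPS pH 7.0, 0.2 mM EDTA, 10 mM Mg acetate and [γ-33P]ATP for 40 min at room temperature. The reaction was stopped with phosphoric acid, and substrate phosphorylation was quantified by filter binding and scintillation counting.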

Flt3 (h) = Flt3 (h) (Homo sapiens, UniProt P36888); test: Flt3 human kinase assay (glass-fiber filter); type: biochemical; settings: test concentration of 10^−6M; read-out: C6 score (inhibition of Flt3 human)
In short: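 Human Flt3 (5-10 mU) with 50 μM peptide substrate in 8 mM MOPS pH 7.0, 0.2 mM EDTA, 10 mM Mg acetate and [γ-33P]ATP (concentration as required), 40 min at room temperature. Reaction stopped with phosphoric acid; substrate 33P incorporation counted on P30 glass-fiber filter.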

Chain of Abl (h) (P00519 whole entry): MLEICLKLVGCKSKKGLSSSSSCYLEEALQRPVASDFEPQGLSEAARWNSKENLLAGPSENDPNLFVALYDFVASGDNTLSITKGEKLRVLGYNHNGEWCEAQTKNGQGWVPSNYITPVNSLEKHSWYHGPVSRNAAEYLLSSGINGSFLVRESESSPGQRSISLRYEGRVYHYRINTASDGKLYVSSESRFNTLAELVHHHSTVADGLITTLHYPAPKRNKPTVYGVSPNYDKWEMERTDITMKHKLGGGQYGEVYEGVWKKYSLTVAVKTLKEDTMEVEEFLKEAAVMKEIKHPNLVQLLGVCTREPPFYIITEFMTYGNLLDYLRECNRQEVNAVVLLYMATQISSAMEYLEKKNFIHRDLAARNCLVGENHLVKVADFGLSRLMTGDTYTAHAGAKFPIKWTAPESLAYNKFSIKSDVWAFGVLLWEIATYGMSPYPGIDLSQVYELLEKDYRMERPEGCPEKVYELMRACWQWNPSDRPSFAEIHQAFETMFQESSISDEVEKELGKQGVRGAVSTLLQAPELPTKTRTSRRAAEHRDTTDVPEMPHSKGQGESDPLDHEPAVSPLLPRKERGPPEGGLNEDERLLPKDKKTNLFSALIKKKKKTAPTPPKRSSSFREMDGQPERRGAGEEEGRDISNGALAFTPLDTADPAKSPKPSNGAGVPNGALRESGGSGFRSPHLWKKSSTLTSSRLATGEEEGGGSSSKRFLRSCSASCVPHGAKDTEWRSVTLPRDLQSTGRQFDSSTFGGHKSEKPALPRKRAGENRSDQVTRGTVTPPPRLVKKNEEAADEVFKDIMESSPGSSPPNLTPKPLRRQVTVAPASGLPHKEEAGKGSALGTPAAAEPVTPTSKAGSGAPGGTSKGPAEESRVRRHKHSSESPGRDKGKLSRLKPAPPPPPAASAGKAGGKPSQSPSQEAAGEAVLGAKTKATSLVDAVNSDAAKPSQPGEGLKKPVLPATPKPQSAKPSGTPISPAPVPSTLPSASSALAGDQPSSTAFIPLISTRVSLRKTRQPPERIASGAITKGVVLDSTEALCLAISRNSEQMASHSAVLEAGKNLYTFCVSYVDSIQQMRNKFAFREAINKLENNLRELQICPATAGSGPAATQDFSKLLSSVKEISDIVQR

Row | SMILES | inhibition at 1 µM (Abl (h)) [%] | ring closure, yield of all isomers ([1]; from NCCCCCCNC(=O)c1cccc(Nc2cc(Nc3cccc(C(=O)O)c3)ncn2)c1, PyBOP, 3.45 mM, 1.5 h) [%] | inhibition at 1 µM (Fms (h)) [%] | inhibition at 1 µM (Yes (h)) [%] | inhibition at 1 µM (Lyn (h)) [%] | melting point [°C] | inhibition at 1 µM (CSK (h)) [%] | inhibition at 1 µM (EGFR (h)) [%] | inhibition at 1 µM (cSRC (h)) [%] | inhibition at 1 µM (Lck (h)) [%] | inhibition at 1 µM (Fes (h)) [%] | ring closure, yield of all isomers ([1]; from N#Cc1cnc(Nc2cccc(OCCN)c2)nc1Nc1cccc(C(=O)O)c1, HBTU, 4.0 mM, 17.0 h) [%] | inhibition at 1 µM (Flt3 (h)) [%]
1 | O=C1NCCCCCCNC(=O)c2cccc(c2)Nc2cc(ncn2)Nc2cccc1c2 [Compound 8, 2,4,6,8,15,22-hexaazatetracyclo[22.3.1.1˜3,7˜.1˜9,13˜]triaconta-1(28),3,5,7(30),9,11,13(29),24,26-nonaene-14,23-dione] | 10 to 30 | 33.7 | 30 to 60 | 10 to 30 | 10 to 30 | 307 | 10 to 30 | 10 to 30 |  |  |  |  | 
2 | COc1ccc2cc1OCCCNCCOc1ccc(Cl)cc1Nc1cc(ncn1)N2 [Compound 13, 1H,7H-6,2:8,12-dimetheno-13,20,1,3,5,7,17-benzodioxapentaazacyclodocosine, 23-chloro-14,15,16,17,18,19-hexahydro-11-methoxy-] | 10 to 30 |  |  | > 80 | > 80 | > 260 |  | > 80 | 10 to 30 | 30 to 60 |  |  | 
3 | N#Cc1cnc2nc1Nc1cccc(c1)C(=O)NCCOc1cccc(c1)N2 [Compound 3, 18-oxa-2,4,8,15,25-pentaazatetracyclo[17.3.1.1˜3,7˜.1˜9,13˜]pentacosa-1(23),3,5,7(25),9,11,13(24),19,21-nonaene-6-carbonitrile, 14-oxo-] |  |  | 30 to 60 | 10 to 30 |  | > 260 | 10 to 30 |  | 10 to 30 | 10 to 30 | 10 to 30 | 15 | 30 to 60
